# Data reported in patent publication US20210023012A1, “Solid Pharmaceutical Compositions for Treating HCV” (AbbVie Inc., priority 2019, published 2021).
# Tests used:
# [1] = Steady-state pharmacokinetics of film-coated granules in pediatric subjects by age group; type: in vivo, human; parameters: Ctrough: unit not given here; details: for Ctrough / AUC: Week 2; for AUC: human, oral, film-coated granules
# Procedure: The study was designed to assess the steady state AUC and to assess the pharmacokinetics (PK) of Compound 1/Compound 2 in pediatric subjects by age group. […] Subjects were enrolled in this study and dosed with film-coated granules containing Compound 1/Compound 2 as generally described above in Example 3. [table] An intensive PK sample draw was done at the Week 2 visit with blood samples taken immediately prior to dose (0 hour) and at 2, 4, 6, and 12 hours post dose.
# [2] = Mass balance studies with [14C] compound, single dose; type: in vivo, human; details: single dose of [14C] compound
# [3] = Phase 1 single-dose crossover: bioavailability and food effect of Compound 1/Compound 2 bilayer tablets; type: in vivo, human; details: film-coated vs uncoated bilayer tablets, additional studies
# clinical = details: human, in vivo
# From the text: Target AUC was derived from the geometric mean of AUC values from a population of adult subjects who received Compound 1 and Compound 2.
# [4] = Single-dose crossover: bioavailability of Compound 1/Compound 2 mini-tablets; type: in vivo, human; details: for Cmax / AUC(0-inf) / AUC(0-t) / half-life / Tmax: human, in vivo, oral, N = 14; for Cmax / AUC(0-inf) / AUC(0-t): geometric mean; for half-life: harmonic mean; for Tmax: median
# Procedure: In comparison, when administered with food, the mini-tablets provided an AUC that was only 5% lower than that provided by the regular tablets. […] All of the reference AUCs of the regular tablets were measured under fasting conditions.
# 14 subjects were enrolled in this study and dosed with co-formulated Compound 1/Compound 2 in mini-tablets. One subject spilled 4 mini-tablets (out of 100-150 total mini-tablets) during dosing of Period 2 (Regimen G) and was not excluded from the analysis. The mini-tablets were prepared according to a process similar to that described in Example 2.
# [5] = Phase 1 single-dose crossover: bioavailability and food effect of Compound 1/Compound 2 bilayer tablets; type: in vivo, human; details: for Cmax / AUC(0-inf) / AUC(0-t) / half-life / Tmax: human, in vivo, oral, N = 23; for Cmax / AUC(0-inf) / AUC(0-t): geometric mean; for half-life: harmonic mean; for Tmax: median
# Procedure: Phase 1, single-dose, four-period, randomized, complete crossover clinical trials were conducted to determine the bioavailability and food effect of the Compound 1/Compound 2 film-coated bilayer tablets. Tablets described in Table 1b were used in Regimens A, B and C, and separate tablets containing either Compound 1 or Compound 2 were used in Regimen D. Subjects took a single dose of Compound 1/Compound 2 on Day 1 of each Period. There was a washout of 4 days between doses. • i. Regimens A and D: study drugs were taken under fasting conditions. • ii. Regimen B: study drugs were taken approximately 30 minutes after start of moderate-fat breakfast (about 30% calories from fat). • iii. Regimen C: study drugs were taken approx. 30 minutes after start of high-fat breakfast (50% calories from fat). For Regimens A, B and C, the single dose consisted of three tablets of Table 1b, each tablet contains 100 mg/40 mg Compound 1/Compound 2. For Regimen D, the single dose contained three tablets of Compound 1, each of which contained 100 mg Compound 1, as well as three tablets of Compound 2, each of which contained 40 mg Compound 2. [table] [table]
# [6] = Pharmacokinetic properties in healthy subjects; type: in vivo, human; details: for Tmax: oral, median, single doses
# [7] = Binding to human plasma proteins; type: in vitro ADME; details: read-out: % Bound to human plasma proteins (converted)
# [8] = Predicted PK exposures (Pop-PK AUC) in pediatric subjects; type: in vivo; parameters: concentration or dose not given beside the values; details: human, oral
# From the text: The predicted PK exposures (“Pop-PK AUC”) of Compound 1/Compound 2 based on all PK information collected in the study (including data from other study weeks) is shown in Table 13 and Table 13a.
# Blood-to-plasma ratio = type: in vitro ADME; details: human, whole blood/plasma
# [9] = Regimen F: single dose mini-tablets 200 mg/120 mg, fasting
# [10] = Regimen G: single dose mini-tablets 200 mg/120 mg, non-fasting
# [11] = Regimen J: two Compound 1 tablets (100 mg each) and three Compound 2 tablets (40 mg each), fasting
# [12] = Regimen A: single dose bilayer tablets 300 mg/120 mg, fasting
# [13] = Regimen B: single dose bilayer tablets 300 mg/120 mg with moderate fat breakfast
# [14] = Regimen C: single dose bilayer tablets 300 mg/120 mg with high fat breakfast
# [15] = Regimen D: single dose separate Compound 1 tablets (3 × 100 mg) and Compound 2 tablets (3 × 40 mg), fasting
# [16] = mean systemic exposure with moderate to high fat meals
compound,measurement,setting,value
COC(=O)N[C@H](C(=O)N1CCC[C@H]1c1nc2cc([C@H]3CC[C@H](c4cc5nc([C@@H]6CCCN6C(=O)[C@@H](NC(=O)OC)[C@@H](C)OC)[nH]c5cc4F)N3c3cc(F)c(N4CCC(c5ccc(F)cc5)CC4)c(F)c3)c(F)cc2[nH]1)[C@@H](C)OC [Compound 2],Ctrough,"[1]; 3 to <6 years old, post-adjustment 150 mg/60 mg, N 10",17.5 (139)
same,Ctrough,"[1]; 6 to <9 years old, post-adjustment 200 mg/80 mg, N 9",20.0 (119)
same,Ctrough,"[1]; 9 to <12 years old, post-adjustment 250 mg/100 mg, N 10",40.8 (194)
same,AUC,"[1]; blood, 3 to <6 years old, pre-adjustment, 3 sachets, 120 mg/45 mg, read-out: AUC, Geometric Mean",871 ng·h/mL
same,AUC,"[1]; blood, 6 to <9 years old, pre-adjustment, 4 sachets, 160 mg/60 mg, read-out: AUC, Geometric Mean",987 ng·h/mL
same,AUC,"[1]; blood, 9 to <12 years old, pre-adjustment, 5 sachets, 200 mg/75 mg Compound 1/Compound 2, read-out: AUC, Geometric Mean",1250 ng·h/mL
same,AUC,"[1]; in vivo, 3 to <6 years old, post-adjustment, 3 sachets, 150 mg/60 mg, N 10, read-out: AUC",1660 ng·h/mL
same,AUC,"[1]; in vivo, 6 to <9 years old, post-adjustment, 4 sachets, 200 mg/80 mg, N 9, read-out: AUC",1520 ng·h/mL
same,AUC,"[1]; in vivo, 9 to <12 years old, post-adjustment, 5 sachets, 250 mg/100 mg Compound 1/Compound 2, N 10, read-out: AUC",2300 ng·h/mL
same,Exposures in children aged 3 to <12 years vs adolescents 12 to <18 years and adults from Phase 2/3 studies,[1]; recommended doses according to body weight,comparable
same,% of dose excreted in faeces,[2],96.6%
same,% of dose excreted in urine,[2],0%
same,Impact of film-coating on bioavailability,[3],minimal impact
same,AUC,clinical,1430 ng·h/mL
same,Effect of administration with food on bioavailability,[4]; co-formulated mini-tablets,significantly increased
same,Cmax,"[4]; Regimen F: single dose mini-tablets 200 mg/120 mg Compound 1/Compound 2, fasting",96 ng/mL
same,AUC(0-inf),[4]; [9],913 ng·h/mL
same,AUC(0-t),[4]; [9],863 ng·h/mL
same,half-life,[4]; [9],13.4 h
same,Tmax,[4]; [9],4 h
same,Cmax,"[4]; Regimen G: single dose mini-tablets 200 mg/120 mg Compound 1/Compound 2, non-fasting",177 ng/mL
same,AUC(0-inf),[4]; [10],1320 ng·h/mL
same,AUC(0-t),[4]; [10],1250 ng·h/mL
same,half-life,[4]; [10],13.2 h
same,Tmax,[4]; [10],3 h
same,Cmax,"[4]; Regimen J: single dose two Compound 1 tablets (100 mg each) and three Compound 2 tablets (40 mg each), fasting",139 ng/mL
same,AUC(0-inf),[4]; [11],1260 ng·h/mL
same,AUC(0-t),[4]; [11],1190 ng·h/mL
same,half-life,[4]; [11],13.3 h
same,Tmax,[4]; [11],4.5 h
same,AUC of mini-tablets higher than that of regular tablets (fasting),"[4]; mini-tablets with food, 120 mg Compound 2",6%
same,AUC of mini-tablets lower than that of regular tablets (fasting),"[4]; mini-tablets without food, 200 mg Compound 1 / 120 mg Compound 2, same solid dispersion formulation",28%
same,Effect of administration with food on bioavailability,[5]; bilayer tablets,significantly improved
same,Cmax,"[5]; Regimen A: single dose bilayer tablets 300 mg/120 mg (3 × 100 mg/40 mg), fasting",116 ng/mL
same,AUC(0-inf),[5]; [12],960 ng·h/mL
same,AUC(0-t),[5]; [12],910 ng·h/mL
same,half-life,[5]; [12],13.3 h
same,Tmax,[5]; [12],4 h
same,AUC(0-inf),[5]; [13],1350 ng·h/mL
same,AUC(0-t),[5]; [13],1280 ng·h/mL
same,Cmax,[5]; [13],221 ng/mL
same,half-life,[5]; [13],13 h
same,Tmax,[5]; [13],5 h
same,AUC(0-inf),[5]; [14],1460 ng·h/mL
same,AUC(0-t),[5]; [14],1390 ng·h/mL
same,Cmax,[5]; [14],237 ng/mL
same,half-life,[5]; [14],13.5 h
same,Tmax,[5]; [14],5 h
same,AUC(0-inf),[5]; [15],1490 ng·h/mL
same,AUC(0-t),[5]; [15],1420 ng·h/mL
same,Cmax,[5]; [15],175 ng/mL
same,half-life,[5]; [15],12.5 h
same,Tmax,[5]; [15],4 h
same,Metabolism,[6]; Biotransformation,none
same,Major route of elimination,"[6]; human, in vivo",Biliary
same,Tmax,"[6]; human, in vivo, healthy subjects, read-out: Tmax of granules",3 to 5 h
same,Tmax,"[6]; human, in vivo, healthy subjects, read-out: Tmax of tablets",5 h
same,half-life,"[6]; human, in vivo, healthy subjects, read-out: t1/2 at steady-state",23 to 29 h
same,"Effect of meal (relative to fasting) on adult tablets, ↑",[6]; [16],↑ 40-53%
same,"Effect of meal (relative to fasting) on granules, ↑",[6]; [16],↑ 56-115%
same,fraction unbound,[7],< 0.001
same,AUC,"[8]; blood, Table 13, 3 to <6 years old, N 10, predicted",1430 ng·h/mL
same,AUC,"[8]; blood, Table 13, 6 to <9 years old, N 9, predicted",1460 ng·h/mL
same,AUC,"[8]; blood, Table 13, 9 to <12 years old, N 10, predicted from all PK information collected in the study",1440 ng·h/mL
same,AUC,"[8]; in vivo, Table 13a, 3 to <6 years old, N 10, predicted",1760 ng·h/mL
same,AUC,"[8]; in vivo, Table 13a, 6 to <9 years old, N 9, predicted",1730 ng·h/mL
same,AUC,"[8]; in vivo, Table 13a, 9 to <12 years old, N 10, predicted",2360 ng·h/mL
same,blood plasma ratio,Blood-to-plasma ratio,0.62
